Source: article PMC8318231, “Rate-of-Kill (RoK) assays to triage large compound sets for Chagas disease drug discovery: Application to GSK Chagas Box” (PLoS Neglected Tropical Diseases, 2021)

Columns and labels:
TcCYP51 = conditions: formerly reported; cited from earlier work
[1] = test system: T. cruzi Tulahuen trypomastigotes; assay: T. cruzi trypomastigote assay (Cell Titer-Glo viability, ATP luminescence); assay type: cell-based, Trypanosoma cruzi; conditions: for Trypomastigotes pIC50 48 hours: 48 hours incubation; for Trypomastigotes pIC50 48 hours / Trypomastigotes pIC50 72 hours: pIC50 = -log10 IC50 in molar units; for Trypomastigotes pIC50 72 hours: 72 hours incubation; for 48 pIC50 / 72 pIC50: trypomastigote assay; for 48 pIC50: 48 h; for 72 pIC50: 72 h
Procedure, shortened: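 Tulahuen trypomastigotes from infected LLC-MK2 culture supernatants (days 5–8) plated at 5 × 10^4 per well in DMEM/2% FBS with compound at 5 μM single-shot final or in dose response. Viability by CellTiter-Glo ATP luminescence after 10 min at room temperature, normalised to no-cell (100%) and DMSO (0%) controls.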

[2] = test system: T. cruzi intracellular amastigotes in H9c2 cells; assay: Rate-of-Kill (RoK) high-content imaging assay, amastigotes per cell (AM/CELL) and curve descriptors; assay type: cell-based, Trypanosoma cruzi; conditions: maximum percentage of parasite burden reduction reached by any concentration, 24 hours
Method: For this high-content intracellular imaging assay, H9c2 cells were seeded in 225 cm^2 T- FLASK in DMEM with 10% FBS for 4 h to allow attachment. T. cruzi trypomastigotes, collected at days 5 to 8 after infection from LLC-MK2 parasite infected cultures, were allowed to swim out for 4 h at 37°C from a centrifuged pellet (1,600 x g / 10 min). Trypomastigotes were then collected and counted in a CASY Cell Counter using the 60 μm capillary. Trypomastigotes, in supplemented DMEM, were added to H9c2 cultures in a multiplicity of infection (MOI) of 8 and incubated for 18 h. Cells were washed once with PBS before incubation of the infected H9c2 monolayer with trypsin (Life-Technologies) to detach cells from the flask. Cells were counted in a CASY Cell Counter, using the 150 μm capillary, and their density set at 5 x 10^4 cells/mL in supplemented DMEM. Infected H9c2 were dispensed into 384-well plates at 50 μL per well using a Multidrop Combi dispenser. Control wells used to determine a 100% parasitic growth (full 6th column of each plate) were left untreated, whereas not infected cells were added in the control wells used as 0% parasite growth (or 100% parasite growth inhibition; full 18th column of each plate). The four plates corresponding to each RoK assay were predispensed for the same mother plate. […] Cultures were then fixed and stained with 50 μL per well of a PBS solution containing 4% formaldehyde and 2 μM DRAQ5 DNA dye (BioStatus, UK). Then plates were read in a PerkinElmer Opera Phenix using a 20x objective, 3 fields per well. DRAQ5 signal was detected using 640 nm excitation laser and a 690/50 nm emission detection filter. Automated image analysis was performed with a script developed on Acapella High Content Imaging and Analysis Software (PerkinElmer). Two outputs were provided for each sample well: (1) number of host cells nuclei to determine drug-related cytotoxicity (aka H9c2) and (2) number of amastigotes per cell as infection level measurement (aka AM/CELL). Each output is plotted as a time course for each compound at every concentration. This assay was adapted from Alonso-Padilla et al. and Peña et al..
To identify and classify the different compounds, the number of amastigotes per cell (AM/CELL) raw data obtained in rate of kill assay are normalised using the average of C1 (infected cells) at time 4 hours as 0% effect and the average of C2 (non-infected cells) for each time as 100% effect, according to the following Eq 1: %CIDALRESPONSE=100*[Avg_C14h-RawData]/[Avg_C14h-Avg_C2] (1)
• ME (Maximum Effect) is the maximum percentage of parasite burden reduction reached by any compound concentration. Compounds that decrease the initial parasite load will show a positive value of ME, whereas compounds that allow the progression of infection will render a negative ME value. […] It is calculated for the MCC50 (t50%_MCC50) and for the maximum concentration (t50%_Cmax). […] The value of this parameter is not either interpolated or extrapolated, and it refers to the first experimental time-course point at which a 50% of effect is reached or exceeded. • tlag defines the time elapsed for one particular concentration to reduce parasite burden between two consecutive points at any moment of the time course. It is calculated for the MCC50 (tlag_MCC50) and for the maximum concentration (tlag_Cmax). The value of this parameter is not either interpolated or extrapolated, and it refers to the first experimental time-course point of a positive slope in the normalised plot (i.e. %Cidal_Response). • Cmin_Tox (Minimal CytoToxic Concentration) is the lowest compound concentration that is reducing the number of host mammalian cells below 50% of initial cell density. Cytotoxic compounds may mislead a bona fide antiparasitic action.

Cc1ccc(S(=O)(=O)Cn2nnnc2C(c2cccnc2)N2CCN(c3ccccc3)CC2)cc1 (centres unmarked) [TCMDC-143539]
CYP51 pIC50 (TcCYP51): 6.7 | Trypomastigotes pIC50 48 hours [1]: < 4.3 | Trypomastigotes pIC50 72 hours [1]: < 4.3 | 48 pIC50 ([1]; figure 1A): < 4.3 | 72 pIC50 ([1]; figure 1A): < 4.3 | 72 pIC50 ([1]; figure 1B): < 4.3

Cc1cc(C#N)c([N+](=O)[O-])cc1Br [TCMDC-143541]
CYP51 pIC50 (TcCYP51): 5.1 | Trypomastigotes pIC50 48 hours [1]: 5.8 | Trypomastigotes pIC50 72 hours [1]: 5.5

O=S(=O)(NCC(c1cccnc1)N1CCN(c2ccc(F)cc2)CC1)c1cccs1 (centres unmarked) [TCMDC-143542]
CYP51 pIC50 (TcCYP51): 7.4 | Trypomastigotes pIC50 48 hours [1]: < 4.3 | Trypomastigotes pIC50 72 hours [1]: < 4.3 | 48 pIC50 ([1]; figure 1A): < 4.3 | 72 pIC50 ([1]; figure 1A): < 4.3 | 72 pIC50 ([1]; figure 1B): < 4.3

CC(C(=O)Nc1ccc(Br)cc1)N1CCN(c2ccc([N+](=O)[O-])cc2)CC1 (centres unmarked) [TCMDC-143545]
CYP51 pIC50 (TcCYP51): 4.4 | Trypomastigotes pIC50 48 hours [1]: < 4.3 | Trypomastigotes pIC50 72 hours [1]: < 4.3 | 48 pIC50 ([1]; figure 1A): < 4.3 | 72 pIC50 ([1]; figure 1A): < 4.3 | 72 pIC50 ([1]; figure 1B): < 4.3

Cc1cc2ncn(-c3ccc([N+](=O)[O-])cc3C#N)c2cc1C [TCMDC-143546]
CYP51 pIC50 (TcCYP51): < 4 | Trypomastigotes pIC50 48 hours [1]: 5.7 | Trypomastigotes pIC50 72 hours [1]: 5.9

Cc1ccc2nc(N(Cc3cccnc3)C(=O)CCc3ccccc3)sc2c1 [TCMDC-143553]
CYP51 pIC50 (TcCYP51): 7.2 | Trypomastigotes pIC50 48 hours [1]: 4.7 | Trypomastigotes pIC50 72 hours [1]: < 4.3

O=C(Nc1cccc(F)c1)N1CCC(Oc2cccc(-c3cccnc3)c2)CC1 [TCMDC-143555]
CYP51 pIC50 (TcCYP51): 6.8 | Trypomastigotes pIC50 48 hours [1]: < 4.3 | Trypomastigotes pIC50 72 hours [1]: < 4.3 | 48 pIC50 ([1]; figure 1A): < 4.3 | 72 pIC50 ([1]; figure 1A): < 4.3 | 72 pIC50 ([1]; figure 1B): < 4.3

O=[N+]([O-])c1cccc(Nc2cncc(-c3ccccc3CO)c2)c1 [TCMDC-143559]
CYP51 pIC50 (TcCYP51): 5.5 | Trypomastigotes pIC50 48 hours [1]: < 4.3 | Trypomastigotes pIC50 72 hours [1]: < 4.3 | 48 pIC50 ([1]; figure 1A): < 4.3 | 72 pIC50 ([1]; figure 1A): < 4.3 | 72 pIC50 ([1]; figure 1B): < 4.3

O=C(NC(c1ccc(Cl)cc1)c1cnccn1)C1CCN(C(=O)Nc2cccc(C(F)(F)F)c2)CC1 (centres unmarked) [TCMDC-143561]
CYP51 pIC50 (TcCYP51): 6.9 | Trypomastigotes pIC50 48 hours [1]: < 4.3 | Trypomastigotes pIC50 72 hours [1]: < 4.3 | 48 pIC50 ([1]; figure 1A): < 4.3 | 72 pIC50 ([1]; figure 1A): < 4.3 | 72 pIC50 ([1]; figure 1B): < 4.3

O=C(COc1ncnc2cc([N+](=O)[O-])ccc12)NC(=O)NC1CCCCC1 [TCMDC-143564]
CYP51 pIC50 (TcCYP51): < 4 | Trypomastigotes pIC50 48 hours [1]: 5.7 | Trypomastigotes pIC50 72 hours [1]: 5.9

Clc1cc(Br)ccc1OCCCCn1ccnc1.O=C(O)C(=O)O [TCMDC-143590]
CYP51 pIC50 (TcCYP51): 7.2 | Trypomastigotes pIC50 48 hours [1]: 5.4 | Trypomastigotes pIC50 72 hours [1]: 5.3

CC(C)Oc1ccc(C(=O)Nc2ccc(N3CCOCC3)c(Cl)c2)cc1 [TCMDC-143592]
CYP51 pIC50 (TcCYP51): < 4 | Trypomastigotes pIC50 48 hours [1]: < 4.3 | Trypomastigotes pIC50 72 hours [1]: < 4.3 | 48 pIC50 ([1]; figure 1A): < 4.3 | 72 pIC50 ([1]; figure 1A): < 4.3 | 72 pIC50 ([1]; figure 1B): < 4.3

Cl.Cl.NC(=O)c1ccc(-c2cccc(OCCN3CCN(C4CCCCC4)CC3)c2)cc1 [TCMDC-143598]
CYP51 pIC50 (TcCYP51): 4.4 | Trypomastigotes pIC50 48 hours [1]: < 4.3 | Trypomastigotes pIC50 72 hours [1]: < 4.3 | 48 pIC50 ([1]; figure 1A): < 4.3 | 72 pIC50 ([1]; figure 1A): < 4.3 | 72 pIC50 ([1]; figure 1B): < 4.3

CCCC(=O)N(Cc1ccccn1)c1nc2ccccc2s1 [TCMDC-143599]
CYP51 pIC50 (TcCYP51): 7.3 | Trypomastigotes pIC50 48 hours [1]: < 4.3 | Trypomastigotes pIC50 72 hours [1]: < 4.3 | 48 pIC50 ([1]; figure 1A): < 4.3 | 72 pIC50 ([1]; figure 1A): < 4.3 | 72 pIC50 ([1]; figure 1B): < 4.3

Clc1ccc(CN2CCN(C3=NCCN3)CC2)cc1Cl.I.I [TCMDC-143605]
CYP51 pIC50 (TcCYP51): < 4 | Trypomastigotes pIC50 48 hours [1]: 5.6 | Trypomastigotes pIC50 72 hours [1]: 5.3

N#Cc1c(Oc2cccc(Cl)c2)cccc1[N+](=O)[O-] [TCMDC-143608]
CYP51 pIC50 (TcCYP51): < 4 | Trypomastigotes pIC50 48 hours [1]: 6.9 | Trypomastigotes pIC50 72 hours [1]: 6.9 | 48 pIC50 ([1]; figure 1A): 6.9 | 72 pIC50 ([1]; figure 1A): 6.9 | 72 pIC50 ([1]; figure 1B): 6.9

Cc1cc(N(C)C)nc2ccc(Cc3cnc(N)nc3N)cc12 [TCMDC-143611]
CYP51 pIC50 (TcCYP51): < 4 | Trypomastigotes pIC50 48 hours [1]: 4.6 | Trypomastigotes pIC50 72 hours [1]: 5.9

O=C(NCC1CCCCC1)c1cnns1 [TCMDC-143612]
CYP51 pIC50 (TcCYP51): < 4 | Trypomastigotes pIC50 48 hours [1]: 4.7 | Trypomastigotes pIC50 72 hours [1]: 4.9

O=C1CN(C2CCCc3c(OCc4ccncc4)cccc32)C(=O)N1C1CCCCC1 (centres unmarked) [TCMDC-143613]
CYP51 pIC50 (TcCYP51): 7.7 | Trypomastigotes pIC50 48 hours [1]: < 4.3 | Trypomastigotes pIC50 72 hours [1]: < 4.3 | 48 pIC50 ([1]; figure 1A): < 4.3 | 72 pIC50 ([1]; figure 1A): < 4.3 | 72 pIC50 ([1]; figure 1B): < 4.3

CC(C)(C)C(O)(CCc1ccc(Cl)cc1)Cn1cncn1 (centres unmarked) [TCMDC-143614]
CYP51 pIC50 (TcCYP51): 6.9 | Trypomastigotes pIC50 48 hours [1]: < 4.3 | Trypomastigotes pIC50 72 hours [1]: < 4.3 | 48 pIC50 ([1]; figure 1A): < 4.3 | 72 pIC50 ([1]; figure 1A): < 4.3 | 72 pIC50 ([1]; figure 1B): < 4.3

Cc1cccc(NS(=O)(=O)c2ccc3c(c2)C(=O)c2cc(S(=O)(=O)Nc4cccc(C)c4C)ccc2-3)c1C [TCMDC-143615]
CYP51 pIC50 (TcCYP51): < 4 | Trypomastigotes pIC50 48 hours [1]: 5 | Trypomastigotes pIC50 72 hours [1]: 4.8

O=C(Cn1cnc([N+](=O)[O-])n1)Nc1ccc(Cl)cc1C(=O)c1ccccc1 [TCMDC-143616]
CYP51 pIC50 (TcCYP51): 5 | Trypomastigotes pIC50 48 hours [1]: 6 | Trypomastigotes pIC50 72 hours [1]: 6 | 48 pIC50 ([1]; figure 1A): 6 | 72 pIC50 ([1]; figure 1A): 6 | 72 pIC50 ([1]; figure 1B): 6

N#Cc1ccc(S(=O)(=O)N2CCN(Cc3cccc(-c4ccncc4)c3)CC2)cc1 [TCMDC-143620]
CYP51 pIC50 (TcCYP51): 7.1 | Trypomastigotes pIC50 48 hours [1]: 4.4 | Trypomastigotes pIC50 72 hours [1]: < 4.3

Cc1cc(C)c(C#N)c(SCC(=O)c2ccc3c(c2)OCO3)n1 [TCMDC-143625]
CYP51 pIC50 (TcCYP51): < 4 | Trypomastigotes pIC50 48 hours [1]: 5.7 | Trypomastigotes pIC50 72 hours [1]: 5.5

CS(=O)(=O)O.Cc1cc(Br)cc(C(=O)c2c(C(C)C)c(=O)[nH]c(=O)n2Cc2ccnc(N)c2)c1 [TCMDC-143626]
CYP51 pIC50 (TcCYP51): 7.8 | Trypomastigotes pIC50 48 hours [1]: < 4.3 | Trypomastigotes pIC50 72 hours [1]: < 4.3 | 48 pIC50 ([1]; figure 1A): < 4.3 | 72 pIC50 ([1]; figure 1A): < 4.3 | 72 pIC50 ([1]; figure 1B): < 4.3

CNc1cc(Cn2c(C(=O)c3cc(C)cc(Cl)c3)c(C(C)C)c(=O)[nH]c2=O)ccn1 [TCMDC-143637]
CYP51 pIC50 (TcCYP51): 7.5 | ME 24h (maximum effect at 24 hours, intracellular amastigotes) [2]: 23.6593% | Trypomastigotes pIC50 48 hours [1]: < 4.3 | Trypomastigotes pIC50 72 hours [1]: < 4.3 | 72 pIC50 (trypomastigotes, raw data of Fig 1D) ([1]; 72 hours, plotted values, censored values given without sign): < 4.3 | 48 pIC50 ([1]; figure 1A): < 4.3 | 72 pIC50 ([1]; figure 1A): < 4.3 | 72 pIC50 ([1]; figure 1B): < 4.3
